# Experimental data as given in US4066650A, “Keto-aldehyde-amine addition products and method of making same” (priority 1975, dated 1978).
# Assays:
# Water solubility = type: physicochemical
# [1] = test system: normal (non-tumorous) mice; assay: Acute toxicity (mortality), body weight change and 30-day survival in normal mice
# Procedure: (§1) The biological effects of methylglyoxal maleimide ("A") and methylglyoxal glutaconic imide ("B") were determined by tests on normal (non-tumorous) and subcutaneous Sarcoma-180 tumor-bearing mice. […] The compounds were administered by intraperitoneal route and the values were calculated by standard methods (Goldin A., in Meth.Can.Res. 4, p. 193, 1968).
# (§2) A thirty-day survival test was carried out with normal mice to determine any possible delayed toxicity.
# (§3) The test solutions were prepared by dissolving either 38.72 mg of methylglyoxal maleimide ("A") or 5278 mg of methylglyoxal glutaconic imide ("B") in 100 ml of physiological saline. The pH of the solution was adjusted to 6.0, sterilized on Millipore filtration and stored in sterile vials at about 10° C. One […] of such solutions contained 0.387 mg of compound "A" or 52.78 mg of compound "B", respectively and when injected into mice of an average weight of 26 grams the dose was equivalent to 14.884 mg/kg of the compound "A" and 2030 mg/kg of the compound "B".
# (§4) Normal, non-tumor-bearing mice of the same strain, sex and weight were also randomized and placed in separate test groups.
# (§5) The compositions were injected at different dose levels, each dose being double the next-lower dose, with three test groups (30 mice) for each dose level. The injection was effected intraperitoneally into normal and tumor-bearing mice, starting on the fourth day after the inocculation with cancer, once daily for ten consecutive days. […] A proper number of normal and tumorous mice was treated with saline solution in the same manner, frequency and volume as a control experiment. The body weight change and mortality (acute toxicity) were recorded daily.
# (§6) A number of normal animals treated with the drugs in the same manner as the tumorous ones were also sacrificed on the eleventh day, and their organs were collected for histological examination.
# in vivo = details: mouse, in vivo, ip
# Procedure: as §1, §2, §3, §4, §5, §6
# Sarcoma-180 = assay: Anti-tumor action on subcutaneous Sarcoma-180 in mice; type: in vivo, Swiss albino mice (Charles River CD-1 strain)
# Procedure: On the eleventh day (tumer age 14 days) the test and control mice were sacrificed, the tumor or tumorous area was cut out, weighed and stored in formaldehyde for histological examination. At the same time the liver, kidneys, spleen, heart, and a piece of the small intestine were collected and stored in formaldehyde for histopathological evaluation of the effect of the drugs on these tissues and organs.
# The anti-neoplastic action of the drugs was assayed by comparison of the tumor weight present in treated and control animals and expressed as the percent of controls average weight (T/C%). The presence of malignancy in the tumors or tumor-areas of the treated animals was verified by histological examination.
# The reabsorption of tissue, formed between the inocculation of the cancer cells and the onset of the treatment is relatively slow. Treated animals even under strong cancerostatic action of the drugs show a small quantity (100-200 mg) of tissue in the area where the tumor cells where deposited. It is therefore difficult to tell the nature of these residual tissues by macroscopic examination. Most of these residual "lumps" are made up of connective tissues and necrotic, scar tissues. If it were regarded as neoplasia without histological examination the T/C% calculation would give an erratic result in the evaluation of the anti-cancer action of the compound. Histological examination of these "lumps" therefore is exceedingly important in order to arrive at a valid evaluation of the effectiveness of the drugs especially in short-term experiments (10 days) as carried out in the present assays.
# skin graft = assay: Skin graft rejection (orthotopic skin heterografts white to gray and gray to white); type: in vivo, Swiss albino mice and C3HStCrl mice; details: 3.744 mg/kg i.p. daily, cumulative; for rejection on 31-40 days: g to w line; for rejection on 26-30 days: w to g line
# From the text: Skin grafting in mice is well established and this tissue is among the most sensitive indicators of histocompability differences. The retnetion of skin graft between genetically non-related mice is an excellent method of evaluating activity against rejection mechanism. p As the rejection of transplants is associated with antigen formation against the incompatible proteins of the donated tissue, a drug which specifically represses the protein synthesis without affecting the intermediary metabolism of the host is a potential candidate for combatting rejection.
# The experiments described here were performed on random-bred Swiss albino mice (white, females, average body weight 26±3 g; Charles River CD-1-strain) and inbred C3HStCrl mice (cinnamon gray, females, average body weight 20±2 grams; Charles River pedigreed breeders from L. C. Strong Foundation) and othotopic skin transplants were made in both ways, that is, white to gray and gray to white.
# Standard transplantation technique (R. E. Billingham, W. K. Silvers in Transplantation of tissues and cells, The Wistar Institute Press, Philadelphia, p. 8, 1961) was utilized: From nembutal anesthetized animals 4-6 "pinch"-grafts (full thickness, 3-4 mm in diameter) of the close clipped and sterilized skin were collected from the thorax and immediately transplanted. The grafts were positioned in the "beds" (in place of the pinch-graft) and were held in position by tulle gras (vaseline-impregnatedgauze) and by plaster-of-Paris impregnated bandage around the thorax.
# The bandages were removed on the 6-9th day after the transplantation and the future development of the grafts was followed by macroscopical observations.
# Positive and negative controls were made simultaneously for skin rejection:
# a. Four positive control isografts (white to white, and gray to gray) were made. […] On the 21-28th day the fur-bearing skin had regenerated a completely new crop of hairs indistinguishable from the original population with respect to colors, density and orientation.
# b. Four negative control heterografts (white to gray and gray to white) were made without treatment. […] On the 10-12th day after transplantation intravascular thrombies, capillary ruptures, extravasation of blood were the first signs that the grafts were heading for necrosis and rejection which occurred on the 18-25th day.
# The heterografts with treatment followed three courses with methylglyoxal-maleimide (at dose level 3.744 mg/kg/animal/day) administered intraperitoneally in a total amount of 1.0 ml/animal/day.
# i. Animals were treated for 10 days with the composition before grafts were exchanged and treatment was discontinued on the day of transplantation.
# ii. Animals were not treated before the grafts were exchanged but the treatment started on the day of transplantation and continued for 10 days.
# iii. Animals were treated for 10 days with the drug before the grafts were exchanged and the treatment schedule was continued for 25 days after the transplantation.
# [2] = test system: Sarcoma-180 tumor-bearing mice; assay: Acute toxicity (mortality) and body weight change in Sarcoma-180 tumor-bearing mice; details: tumorous mice
# Procedure: as §1, §3
# (§7) Random-bred Swiss albino mice (Charles River CD-1 strain, average weight 26±3 g, females) were inocculated with 25 million Sarcoma-180 cells (in about 0.25 ml of ascitic fluid, cell age 7 days) on the right scapular region. The animals were randomized on the 4th day after the inocculation with the cancer cells, placed in separate test groups of 10 mice per group (5 mice/cage) and weighed.
# (§8) The compositions were injected at different dose levels, each dose being double the next-lower dose, with three test groups (30 mice) for each dose level. The injection was effected intraperitoneally into normal and tumor-bearing mice, starting on the fourth day after the inocculation with cancer, once daily for ten consecutive days. The volume of the injection at each dose level was brought up to 1.0 ml with saline. A proper number of normal and tumorous mice was treated with saline solution in the same manner, frequency and volume as a control experiment. The body weight change and mortality (acute toxicity) were recorded daily.
# [3] = as above; details: mouse, in vivo, ip
# Procedure: as §1, §3, §7, §8
# [4] = (ii) post graft treatment for 10 days
# [5] = (iii) pretreatment for 10 days and post graft treatment for 25 days
compound,measurement,setting,value
"CC(=O)C(O)N1C(=O)CCC1=O (centres unmarked) [Methylglyoxal-succinimide, N-(2-keto-propane-1ol)-2,5diketo pyrrolidine]",water solubility,Water solubility,high
"CC(=O)C(O)N1C(=O)C=CC1=O (centres unmarked) [Methylglyoxal-maleimide, N'-(2-keto-propane-1-ol)-2,5-dioxopyrroline-3-ene]",LD10 (maximum tolerated dose at 10% lethality),"[1]; mice, i.p. daily for 10 days",8.59 mg/kg
same,effect of reduction in the total volume of injection on mortality,"[1]; mice, i.p., volume below 1.0 ml/animal/day",increase in mortality
same,Δ body wt,"[1]; normal mice, 0.234 mg/kg i.p. daily for 10 days",+1.0
same,Δ body wt,"[1]; normal mice, 0.468 mg/kg i.p. daily for 10 days",+0.7
same,Δ body wt,"[1]; normal mice, 0.936 mg/kg i.p. daily for 10 days",+0.46
same,Δ body wt,"[1]; normal mice, 1.872 mg/kg i.p. daily for 10 days",+0.39
same,Δ body wt,"[1]; normal mice, 3.744 mg/kg i.p. daily for 10 days",+0.1
same,Δ body wt,"[1]; normal mice, 7.488 mg/kg i.p. daily for 10 days",-0.2
same,30 day mortality rate of all treated nontumorous animals (compared with mortality in 10 days),"[1]; normal mice, i.p. daily for 10 days, 30 day observation",identical
same,mortality at 240 h,in vivo; 0.234 mg/kg,0%
same,mortality at 240 h,in vivo; 0.468 mg/kg,0%
same,mortality at 240 h,in vivo; 0.936 mg/kg,0%
same,mortality at 240 h,in vivo; 1.872 mg/kg,0%
same,mortality at 240 h,in vivo; 3.744 mg/kg,0%
same,mortality at 240 h,in vivo; 7.488 mg/kg,0%
same,mortality at 240 h,in vivo; 14.896 mg/kg,100%
same,ED99,"Sarcoma-180; Mus musculus, Sarcoma-180, ip, 240 h, tumorous mice, i.p. daily for 10 days",1.15 mg/kg
same,IT (therapeutic index LD10/ED90),"Sarcoma-180; mice, i.p. daily for 10 days",7.46
same,ED%,"Sarcoma-180; tumorous mice, 0.234 mg/kg i.p. daily for 10 days",> 0.5%
same,ED%,"Sarcoma-180; tumorous mice, 0.468 mg/kg i.p. daily for 10 days",~ 1%
same,ED%,"Sarcoma-180; tumorous mice, 0.936 mg/kg i.p. daily for 10 days",60%
same,ED%,"Sarcoma-180; tumorous mice, 1.872 mg/kg i.p. daily for 10 days",100%
same,ED%,"Sarcoma-180; tumorous mice, 3.744 mg/kg i.p. daily for 10 days",100%
same,ED%,"Sarcoma-180; tumorous mice, 7.488 mg/kg i.p. daily for 10 days",100%
same,rejection on 31-40 days,skin graft; (i) pretreatment for 10 days,100%
same,rejection on 26-30 days,skin graft; (i) pretreatment for 10 days,30%
same,rejection on 31-40 days,skin graft; [4],60%
same,rejection on 26-30 days,skin graft; [4],10%
same,rejection on 31-40 days,skin graft; [5],10%
same,rejection on 26-30 days,skin graft; [5],No rejection
same,Δ body wt,[2]; 0.234 mg/kg i.p. daily for 10 days,+0.96
same,Δ body wt,[2]; 0.468 mg/kg i.p. daily for 10 days,+0.65
same,Δ body wt,[2]; 0.936 mg/kg i.p. daily for 10 days,+0.6
same,Δ body wt,[2]; 1.872 mg/kg i.p. daily for 10 days,+0.4
same,Δ body wt,[2]; 3.744 mg/kg i.p. daily for 10 days,+0.3
same,Δ body wt,[2]; 7.488 mg/kg i.p. daily for 10 days,+0.1
same,mortality at 240 h,[3]; 0.234 mg/kg,0%
same,mortality at 240 h,[3]; 0.468 mg/kg,0%
same,mortality at 240 h,[3]; 0.936 mg/kg,0%
same,mortality at 240 h,[3]; 1.872 mg/kg,0%
same,mortality at 240 h,[3]; 3.744 mg/kg,0%
same,mortality at 240 h,[3]; 7.488 mg/kg,0%
same,mortality at 240 h,[3]; 14.896 mg/kg,100%
